# Test results reported in patent US20240148757A1, “USE OF DIHYDROOROTATE DEHYDROGENASE (DHODH) INHIBITORS TO TARGET FERROPTOSIS IN CANCER THERAPY” (BOARD OF REGENTS, THE UNIVERSITY OF TEXAS SYSTEM, priority 2021, published 2024).
# Columns and labels:
# GPX4^high HT-1080 cells = test: Cell viability / cell death (ferroptosis) in HT-1080 cells; type: cell-based, human; settings: wild-type (WT) cells, BQR 500 μM, 4 hours
# Procedure: Briefly, cells were seeded onto 96-well plates at a density of 2×10^4 per well. The next day, cells were treated with GPX4 or DHODH inhibitors for 4 hours. Subsequently, cells exposed to 10 μl CCK-8 reagent (100 μl medium per well) for 1 hour at 37° C., 5% CO2 in an incubator. The absorbance at a wavelength of 450 nm was determined using a FLUOstar Omega microplate reader (BMG Labtech).
# For propidium iodide-staining, cells were seeded at a density of 50% confluence into 12-well plates. The next day, cells were treated with different reagents. To measure cell death, the cells were collected (including floating dead cells), stained with 5 μg/ml propidium iodide and the percentage of the propidium iodide-positive dead cell population was analyzed using the flow cytometer BD Accuri C6 (BD Biosciences) and an FL2 detector. A minimum of 10,000 single cells were analyzed per well and all experiments were carried out at least in triplicate.
# HT-1080 xenograft tumors = test: HT-1080 cell line-derived xenograft model; type: in vivo, athymic nude mice
# Procedure: (§1) Fresh tumor tissues were fixed in 10% neutral buffered formalin overnight, washed once with PBS, and stored in 70% ethanol at 4° C. The tissues were dehydrated and embedded in paraffin by the Research Histology Core Laboratory (MD Anderson Cancer Center) according to standard protocols. Embedded tissues were sectioned at a thickness of 5 μm for H&E or immunohistochemistry (IHC) analysis. IHC analysis was performed as previously described (Gan, B., et al., Cancer Cell 18, 472-484 (2010); Gan, B., et al., J Cell Biol 175, 121-133 (2006)). Briefly, the primary antibodies, including ki-67 (1:500, 9027s, Cell Signaling Technology), cleaved-caspase 3 (1:500, 9661s, Cell Signaling Technology), or 4-HNE (1:400, ab46545, Abcam) were incubated overnight at 4° C. Staining was performed using the Vectastain elite ABC kit and DAB peroxidase substrate kit (Vector laboratories). Images were randomly taken from the […] (five images per tumor) at ×200 magnification using an Olympus BX43 microscope. All the xenograft experiments were performed in accordance with a protocol approved by the Institutional Animal Care and Use Committee and Institutional Review Board at The University of Texas MD Anderson Cancer Center. The study is compliant with all relevant ethical regulations regarding animal research. Female 4- to 6-week-old athymic nude mice (Foxn1^nu/Foxn1^nu) were purchased from the Experimental Radiation Oncology Breeding Core Facility at MD Anderson Cancer Center and housed in the Animal Care Facility at the Department of Veterinary Medicine and Surgery at MD Anderson. Cancer cell lines were suspended and counted in cold phosphate-buffered saline (PBS), and 5×10^6 HT-1080 or 1×10^7 NCI-H226 cells were injected into mice subcutaneously. When the tumor reached 50-100 mm^3, the mice were assigned randomly into different treatment groups. Brequinar or sulfasalazine was dissolved in dimethyl sulfoxide (DMSO) and diluted in PBS. Brequinar was intraperitoneally injected into mice at a dose of 30 mg/kg every three days. Sulfasalazine was intraperitoneally injected daily at a dose of 100 mg/kg. Liproxstatin-1 diluted in PBS was intraperitoneally injected daily at a dose of 10 mg/kg. The daily injection of brequinar, sulfasalazine, or liproxstatin-1 was continued until the endpoint as indicated in the corresponding figures. The tumor volume was measured every 3 days until the endpoint and calculated according to the equation volume=length×width^2×½.
# GPX4-knockdown tumors = test: GPX4-knockdown HT-1080 xenograft model; type: in vivo, athymic nude mice
# Procedure: as §1
# [1] = test system: GPX4^low NCI-H226 xenografts; test: NCI-H226 xenograft model; type: in vivo, athymic nude mice; settings: brequinar 30 mg/kg intraperitoneally every three days
# Procedure: All the xenograft experiments were performed in accordance with a protocol approved by the Institutional Animal Care and Use Committee and Institutional Review Board at The University of Texas MD Anderson Cancer Center. The study is compliant with all relevant ethical regulations regarding animal research. Female 4- to 6-week-old athymic nude mice (Foxn1^nu/Foxn1^nu) were purchased from the Experimental Radiation Oncology Breeding Core Facility at MD Anderson Cancer Center and housed in the Animal Care Facility at the Department of Veterinary Medicine and Surgery at MD Anderson. Cancer cell lines were suspended and counted in cold phosphate-buffered saline (PBS), and 5×10^6 HT-1080 or 1×10^7 NCI-H226 cells were injected into mice subcutaneously. When the tumor reached 50-100 mm^3, the mice were assigned randomly into different treatment groups. Brequinar or sulfasalazine was dissolved in dimethyl sulfoxide (DMSO) and diluted in PBS. Brequinar was intraperitoneally injected into mice at a dose of 30 mg/kg every three days. Sulfasalazine was intraperitoneally injected daily at a dose of 100 mg/kg. Liproxstatin-1 diluted in PBS was intraperitoneally injected daily at a dose of 10 mg/kg. […] The tumor volume was measured every 3 days until the endpoint and calculated according to the equation volume=length×width^2×½.
# [2] = test system: GPX4^low patient-derived xenografts (PDXs); test: GPX4^low patient-derived xenograft model; type: in vivo, NSG mice; settings: brequinar 30 mg/kg intraperitoneally every three days
# From the text: PDXs were generated in accordance with protocols approved by the Institutional Review Board at The University of Texas MD Anderson Cancer Center. Informed consent was obtained from the patients and the study is compliant with all relevant ethical regulations regarding research involving human participants. All the NOD scid gamma (NSG) mice were purchased from the Experimental Radiation Oncology Breeding Core Facility at MD Anderson Cancer Center and housed in the Animal Care Facility at the Department of Veterinary Medicine and Surgery at MD Anderson Cancer Center. PDX model used in this study was originally obtained from lung cancer PDX platform at MD Anderson Cancer Center. PDX experiments were performed as previously described (Liu, X., et al., Nat Cell Biol 22, 476-486 (2020)). Briefly, PDX tumors in cold DMEM media were minced into fragments 1-2 mm^3 in volume. Then each PDX tumor fragment was subcutaneously inoculated into the dorsal flank of NSG mice. When the tumors reached 50-100 mm 3 in volume, the mice were assigned randomly into different treatment groups for the treatment of brequinar, sulfasalazine, and/or liproxstatin-1 as described under cell line-derived xenograft model. The tumor volume was measured every 3 days until the endpoint and calculated according to the equation volume=length×width^2×½.
# solid tumors = settings: oncology clinical trials; cited from earlier work
# DHODH = DHODH (Homo sapiens, UniProt Q02127); settings: cited from earlier work
# [3] = brequinar 30 mg/kg intraperitoneally every three days
# Sequence of DHODH (Q02127 whole entry, species assumed): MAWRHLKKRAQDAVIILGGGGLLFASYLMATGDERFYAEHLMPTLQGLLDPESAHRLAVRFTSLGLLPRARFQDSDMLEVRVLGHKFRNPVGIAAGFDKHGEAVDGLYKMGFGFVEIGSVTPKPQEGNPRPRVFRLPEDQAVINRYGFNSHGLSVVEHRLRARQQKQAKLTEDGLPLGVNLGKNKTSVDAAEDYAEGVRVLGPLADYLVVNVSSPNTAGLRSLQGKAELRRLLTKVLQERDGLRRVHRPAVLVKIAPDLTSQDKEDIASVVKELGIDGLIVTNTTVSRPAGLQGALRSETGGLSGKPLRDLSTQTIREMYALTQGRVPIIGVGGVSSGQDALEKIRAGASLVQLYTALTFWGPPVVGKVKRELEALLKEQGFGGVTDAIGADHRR
structure (smiles),measurement,setting,value
Cc1c(-c2ccc(-c3ccccc3F)cc2)nc2ccc(F)cc2c1C(=O)O [brequinar],effect on RSL3-induced ferroptosis,GPX4^high HT-1080 cells,promotes RSL3-induced ferroptosis
same,tumor growth,HT-1080 xenograft tumors; [3],did not affect the growth
same,4-HNE staining (lipid peroxidation marker),HT-1080 xenograft tumors; control tumors,but not in control tumors
same,cleaved caspase-3 or Ki67 staining,HT-1080 xenograft tumors; control xenograft samples,did not affect
same,4-HNE staining (lipid peroxidation marker),GPX4-knockdown tumors; GPX4-knockdown tumors,dramatically increased
same,cleaved caspase-3 or Ki67 staining,GPX4-knockdown tumors; GPX4-knockdown xenograft samples,did not affect
same,tumor growth (sensitivity to DHODH inhibition),GPX4-knockdown tumors; [3],significantly sensitized
same,tumor growth,[1],significantly suppressed
same,tumor growth,[2],significantly suppressed
same,efficacy against solid tumors,solid tumors,lacks broad efficacy against solid tumors
same,tolerability in patients,solid tumors,well-tolerated
same,DHODH inhibitor potency and specificity,DHODH,potent and specific
